Reference: patent US20050287514A1, “Compositions and methods useful for HCV infection” (Vertex Pharmaceuticals Incorporated, priority 2003, published 2005)

System: HCV
Test: Inhibition of HCV infection of cryopreserved human fetal liver cells (cell-associated HCV RNA by multiplex RT-PCR)
Type: cell-based
Details: VX-950 at 0.2 uM or greater; cryopreserved human fetal liver cells in HDM2; 15 hours inoculation plus additional 47 hours incubation
Protocol: FIG. 3 depicts the inhibition of HCV infection of cryopreserved human fetal liver cells by the HCV NS3·4a protease inhibitor VX-950 (see WO 02/18369).
Cryopreserved human fetal liver cells were thawed and allowed to adhere to wells of a collagen coated 96-well plate for 6 hours at 37° C. Non-adherent cells were removed and medium replaced with hormonally defined medium containing DMEM, BSA, nicotinamide, EGF, insulin, transferrin, and hydrocortisone (HDM2). The wells were inoculated with HCV in the presence of different concentrations of VX-950 and incubated for 15 hours at 37° C. The non-adsorbed virus was removed, the cultures washed twice with DMEM, then fresh HDM2 containing the same concentration of VX-950 was added. After incubation for an additional 47 hours, the wells were rinsed twice with PBS then the cells lysed with chaotropic buffer and RNA isolated using the Qiagen 96-well RNeasy procedure. HCV RNA was quantitated using the multiplex RT-PCR method and the mean and standard deviation of the triplicate samples at each concentration of inhibitor are presented (HCV copy number per well). […] See, FIG. 3.

## CCC[C@H](NC(=O)C1[C@H]2CCC[C@H]2CN1C(=O)[C@@H](NC(=O)[C@@H](NC(=O)c1cnccn1)C1CCCCC1)C(C)(C)C)C(=O)C(=O)NC1CC1 (stereo partly shown) [VX-950]
  inhibition of HCV replication (HCV RNA copy number per well): nearly complete inhibition of HCV replication
